The results in this text go back to patent publication US20250026778A1 (TIUMBIO CO., LTD., priority 2021, published 2025).

In one assay the target is T1, his-galectin-3 (Homo sapiens, UniProt P17931).
T1 construct: purchased Abcam
T1 sequence (P17931 whole entry): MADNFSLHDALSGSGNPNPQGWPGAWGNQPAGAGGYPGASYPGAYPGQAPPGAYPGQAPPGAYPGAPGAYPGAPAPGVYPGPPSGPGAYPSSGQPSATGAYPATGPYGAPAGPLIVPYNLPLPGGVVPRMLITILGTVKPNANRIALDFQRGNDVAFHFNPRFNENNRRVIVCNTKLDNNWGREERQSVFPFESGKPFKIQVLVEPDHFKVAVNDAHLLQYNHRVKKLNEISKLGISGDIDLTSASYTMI
Description: TR-FRET assay (in vitro galectin-3 binding inhibitory activity test). The conditions noted are these: Table 1; compound at 20 μM; 60 nM his-galectin-3, 15 nM biotin-ASF; read-out: % Inhibitory activity (at 20 μM). The protocol: TR-FRET Assay (In Vitro Galectin-3 Binding Inhibitory Activity Test)
TR-FRET assay was performed in ½ Area Plate-96 (PerkinElmer). Final concentrations of components in the assay were 60 nM his-galectin-3 (Abcam), 15 nM biotin-ASF (Axxora), 2 nM Mab anti-6×His Tb (Cisbio) and 20 nM SA-d2 (Cisbio). The reaction was performed in a buffer containing 25 mM HEPES, 100 mM NaCl, 0.005% Tween 20 and 0.05% BSA. 20 μL his-galectin-3 and 1 μL compound were mixed first, and then 20 μL biotin-ASF, 5 μL anti-His Tb and 5 μL SA-d2 were added in order. After incubation for at least 3.5 hours at RT, TR-FRET signals were measured at 615/665 nm […] wavelengths using a VICTOR Nivo (PerkinElmer). The positive control used DMSO instead of the compound, and the negative control excluded ASF-biotin. N-acetyl-D-lactosamine (LacNAc), an endogenous ligand unit of galectin-3, was evaluated together as a control substance to compare galectin-3 binding inhibitory activity.
A general note: TR-FRET usually uses a lanthanide donor and a delayed reading to cut background.
With `O=C(Cc1cccc2ccccc12)N[C@@H]1CCO[C@]12O[C@H](CO)[C@H](O)[C@H](n1cc(-c3cc(F)c(F)c(F)c3)nn1)[C@H]2O` [Compound A111, N-((4R,5S,7R,8R,9S,10R)-8,10-dihydroxy-7-(hydroxymethyl)-9-(4-(3,4,5-trifluorophenyl)-1H-1,2,3-triazol-1-yl)-1,6-dioxaspiro[4.5]decan-4-yl)-2-(naphthalen-1-yl)acetamide], the inhibition at 20 µM lay within 25 to 50%.

As to `COc1cccc(C(=O)O[C@@H]2[C@@H](n3cc(-c4cc(F)c(F)c(F)c4)nn3)[C@@H](O)[C@@H](CO)O[C@@]23CCCO3)c1` [Compound A40, (5S,7R,8R,9S,10R)-8-hydroxy-7-(hydroxymethyl)-9-(4-(3,4,5-trifluorophenyl)-1H-1,2,3-triazol-1-yl)-1,6-dioxaspiro[4.5]decan-10-yl 3-methoxybenzoate], the inhibition at 20 µM lay in the range of 25 to 50%.

Regarding `O=C(N[C@@H]1CCO[C@]12O[C@H](CO)[C@H](O)[C@H](n1cc(-c3cc(F)c(F)c(F)c3)nn1)[C@H]2O)c1cccc(Oc2ccccc2)c1` [Compound A130, N-((4R,5S,7R,8R,9S,10R)-8,10-dihydroxy-7-(hydroxymethyl)-9-(4-(3,4,5-trifluorophenyl)-1H-1,2,3-triazol-1-yl)-1,6-dioxaspiro[4.5]decan-4-yl)-3-phenoxybenzamide], the inhibition at 20 µM was in the range of 50 to 75%.

With `OC[C@H]1OC2(CCCC2)[C@H](O)[C@@H](n2cc(-c3cc(F)c(F)c(F)c3)nn2)[C@H]1O` [Compound A101, (7R,8R,9S,10R)-7-(hydroxymethyl)-9-(4-(3,4,5-trifluorophenyl)-1H-1,2,3-triazol-1-yl)-6-oxaspiro[4.5]decane-8,10-diol], the inhibition at 20 µM lay in the range of 25 to 50%.

For `O=C(O[C@@H]1[C@@H](n2cc(-c3cc(F)c(F)c(F)c3)nn2)[C@@H](O)[C@@H](CO)O[C@@]12CCCO2)c1cccc(F)c1F` [Compound A71, (5S,7R,8R,9S,10R)-8-hydroxy-7-(hydroxymethyl)-9-(4-(3,4,5-trifluorophenyl)-1H-1,2,3-triazol-1-yl)-1,6-dioxaspiro[4.5]decan-10-yl 2,3-difluorobenzoate], the inhibition at 20 µM lay in the range of 25 to 50%.

Regarding `O=C(CO[C@@H]1[C@@H](n2cc(-c3cc(F)c(F)c(F)c3)nn2)[C@@H](O)[C@@H](CO)O[C@@]12CCCO2)N1CCC(O)CC1` [Compound A22, 2-(((5S,7R,8R,9S,10R)-8-hydroxy-7-(hydroxymethyl)-9-(4-(3,4,5-trifluorophenyl)-1H-1,2,3-triazol-1-yl)-1,6-dioxaspiro[4.5]decan-10-yl)oxy)-1-(4-hydroxypiperidin1-yl)ethanone], the inhibition at 20 µM was in the range of 25 to 50%.

`O=P(O)(O)O[C@@H]1[C@@H](n2cc(-c3cc(F)c(F)c(F)c3)nn2)[C@@H](O)[C@@H](CO)O[C@@]12CCCCO2` [Compound A76, (2R,3R,4S,5R,6S)-3-hydroxy-2-(hydroxymethyl)-4-(4-(3,4,5-trifluorophenyl)-1H-1,2,3-triazol-1-yl)-1,7-dioxaspiro[5.5]undecan-5-yl dihydrogen phosphate]: the inhibition at 20 µM lay within 50 to 75%.

Regarding `CC(C(=O)N[C@@H]1CCO[C@]12O[C@H](CO)[C@H](O)[C@H](n1cc(-c3cc(F)c(F)c(F)c3)nn1)[C@H]2O)c1ccccc1` (stereo partly drawn) [Compound A137, N-((4R,5S,7R,8R,9S,10R)-8,10-dihydroxy-7-(hydroxymethyl)-9-(4-(3,4,5-trifluorophenyl)-1H-1,2,3-triazol-1-yl)-1,6-dioxaspiro[4.5]decan-4-yl)-2-phenylpropanamide], the inhibition at 20 µM lay within 50 to 75%.

On to `O=C(O[C@@H]1[C@@H](n2cc(-c3cc(F)c(F)c(F)c3)nn2)[C@@H](O)[C@@H](CO)O[C@@]12CCCCO2)c1cccc(C(F)(F)F)c1` [Compound A52, (2R,3R,4S,5R,6S)-3-hydroxy-2-(hydroxymethyl)-4-(4-(3,4,5-trifluorophenyl)-1H-1,2,3-triazol-1-yl)-1,7-dioxaspiro[5.5]undecan-5-yl 3-(trifluoromethyl)benzoate], for which the inhibition at 20 µM was under 25%.

Consider `COc1cccc(C(=O)O[C@@H]2[C@@H](n3cc(-c4cc(F)c(F)c(F)c4)nn3)[C@@H](O)[C@@H](CO)O[C@@]23CCCCO3)c1` [Compound A53, (2R,3R,4S,5R,6S)-3-hydroxy-2-(hydroxymethyl)-4-(4-(3,4,5-trifluorophenyl)-1H-1,2,3-triazol-1-yl)-1,7-dioxaspiro[5.5]undecan-5-yl 3-methoxybenzoate], for which the inhibition at 20 µM lay within 25 to 50%.

Take `O=C(N[C@@H]1CCO[C@]12O[C@H](CO)[C@H](O)[C@H](n1cc(-c3cc(F)c(F)c(F)c3)nn1)[C@H]2O)c1cccc(C(F)(F)F)c1` [Compound A152]: the inhibition at 20 µM lay within 50 to 75%.

The same assay, now with this note: Table 2; compound at 20 μM; 60 nM his-galectin-3, 15 nM biotin-ASF; read-out: % Inhibitory activity (at 20 μM).
`Cc1cc(C(=O)N[C@@H]2CCO[C@]23O[C@H](CO)[C@H](O)[C@H](n2cc(-c4cc(F)c(F)c(F)c4)nn2)[C@H]3O)c2cccnc2c1` [Compound A245, N-((4R,5S,7R,8R,9S,10R)-8,10-dihydroxy-7-(hydroxymethyl)-9-(4-(3,4,5-trifluorophenyl)-1H-1,2,3-triazol-1-yl)-1,6-dioxaspiro[4.5]decan-4-yl)-7-methylquinoline-5-carboxamide]: the inhibition at 20 µM was over 75%.

On to `OC[C@H]1O[C@@]2(CCCO2)[C@H](O)[C@@H](n2cc(-c3cc(F)c(F)c(F)c3)cn2)[C@H]1O` [Compound A237, (5S,7R,8R,9S,10R)-7-(hydroxymethyl)-9-(4-(3,4,5-trifluorophenyl)-1H-pyrazol-1-yl)-1,6-dioxaspiro[4.5]decane-8,10-diol], for which the inhibition at 20 µM is 25 to 50%.

Take `OC[C@H]1O[C@@]2(CCCN(c3ccc(Cl)cc3)C2)[C@H](O)[C@@H](n2cc(-c3cc(F)c(F)c(F)c3)nn2)[C@H]1O` [Compound A224, (2R,3R,4S,5R,6R)-8-(4-chlorophenyl)-2-(hydroxymethyl)-4-(4-(3,4,5-trifluorophenyl)-1H-1,2,3-triazol-1-yl)-1-oxa-8-azaspiro[5.5]undecane-3,5-diol]: the inhibition at 20 µM was under 25%.

On to `O=C(Nc1cccc(Cl)c1)N[C@@H]1CCO[C@]12O[C@H](CO)[C@H](O)[C@H](n1cc(-c3cc(F)c(F)c(F)c3)nn1)[C@H]2O` [Compound A215, 1-(3-chlorophenyl)-3-((4R,5S,7R,8R,9S,10R)-8,10-dihydroxy-7-(hydroxymethyl)-9-(4-(3,4,5-trifluorophenyl)-1H-1,2,3-triazol-1-yl)-1,6-dioxaspiro[4.5]decan-4-yl)urea], for which the inhibition at 20 µM is over 75%.

Take `CC1CO[C@@]2(C1)O[C@H](CO)[C@H](O)[C@H](n1cc(-c3cc(F)c(F)c(F)c3)nn1)[C@H]2OC(=O)c1ccccn1` (single isomer, unassigned) [Compound A235]: the inhibition at 20 µM was 50 to 75%.

Consider `O=C(N[C@@H]1CCO[C@]12O[C@H](CO)[C@H](O)[C@H](n1cc(-c3cc(F)c(F)c(F)c3)nn1)[C@H]2O)c1sc2ccccc2c1Cl` [Compound A156, 3-chloro-N-((4R,5S,7R,8R,9S,10R)-8,10-dihydroxy-7-(hydroxymethyl)-9-(4-(3,4,5-trifluorophenyl)-1H-1,2,3-triazol-1-yl)-1,6-dioxaspiro[4.5]decan-4-yl)benzo[b]thiophene-2-carboxamide], for which the inhibition at 20 µM is 50 to 75%.

In the case of `OC[C@H]1O[C@]2(OCC[C@H]2/N=C\c2ccc3ccccc3c2O)[C@H](O)[C@@H](n2cc(-c3cc(F)c(F)c(F)c3)nn2)[C@H]1O` [Compound A203, (4R,5S,7R,8R,9S,10R)-7-(hydroxymethyl)-4-((Z)-((1-hydroxynaphthalen-2-yl)methylene)amino)-9-(4-(3,4,5-trifluorophenyl)-1H-1,2,3-triazol-1-yl)-1,6-dioxaspiro[4.5]decane-8,10-diol], the inhibition at 20 µM was 25 to 50%.

In the case of `O=C(N[C@@H]1CCO[C@]12O[C@H](CO)[C@H](O)[C@H](n1cc(-c3cc(F)c(F)c(F)c3)nn1)[C@H]2O)c1cccc2ccc(Cl)cc12` [Compound A256, 7-chloro-N-((4R,5S,7R,8R,9S,10R)-8,10-dihydroxy-7-(hydroxymethyl)-9-(4-(3,4,5-trifluorophenyl)-1H-1,2,3-triazol-1-yl)-1,6-dioxaspiro[4.5]decan-4-yl)-1-naphthamide], the inhibition at 20 µM was over 75%.

Still in this assay, the particulars now being: Table 3, found values; compound at 20 μM; 60 nM his-galectin-3, 15 nM biotin-ASF; read-out: % Inhibitory activity (at 20 μM).
Turning to `OC[C@H]1O[C@@]2(CCCN(c3ccc(Cl)cc3)C2)[C@H](O)[C@@H](n2cc(-c3cc(F)c(F)c(F)c3)nn2)[C@H]1O` [Compound A224, (2R,3R,4S,5R,6R)-8-(4-chlorophenyl)-2-(hydroxymethyl)-4-(4-(3,4,5-trifluorophenyl)-1H-1,2,3-triazol-1-yl)-1-oxa-8-azaspiro[5.5]undecane-3,5-diol], the inhibition at 20 µM was 24.2%.

Consider `O=C(N[C@@H]1CCO[C@]12O[C@H](CO)[C@H](O)[C@H](n1cc(-c3cc(F)c(F)c(F)c3)nn1)[C@H]2O)c1cccc(Oc2ccccc2)c1` [Compound A130, N-((4R,5S,7R,8R,9S,10R)-8,10-dihydroxy-7-(hydroxymethyl)-9-(4-(3,4,5-trifluorophenyl)-1H-1,2,3-triazol-1-yl)-1,6-dioxaspiro[4.5]decan-4-yl)-3-phenoxybenzamide], for which the inhibition at 20 µM was 56.6%.

Regarding `O=C(CO[C@@H]1[C@@H](n2cc(-c3cc(F)c(F)c(F)c3)nn2)[C@@H](O)[C@@H](CO)O[C@@]12CCCO2)N1CCC(O)CC1` [Compound A22, 2-(((5S,7R,8R,9S,10R)-8-hydroxy-7-(hydroxymethyl)-9-(4-(3,4,5-trifluorophenyl)-1H-1,2,3-triazol-1-yl)-1,6-dioxaspiro[4.5]decan-10-yl)oxy)-1-(4-hydroxypiperidin1-yl)ethanone], the inhibition at 20 µM was found to be 28.1%.

The same assay, now with this note: read-out: % Inhibitory activity (at 20 μM), Table 1; compound at 20 μM; 60 nM his-galectin-3, 15 nM biotin-ASF.
For `O=C(O[C@@H]1[C@@H](n2cc(-c3cc(F)c(F)c(F)c3)nn2)[C@@H](O)[C@@H](CO)O[C@@]12CCCO2)c1ccccc1F` [Compound A69, (5S,7R,8R,9S,10R)-8-hydroxy-7-(hydroxymethyl)-9-(4-(3,4,5-trifluorophenyl)-1H-1,2,3-triazol-1-yl)-1,6-dioxaspiro[4.5]decan-10-yl 2-fluorobenzoate], the inhibition at 20 µM is 25 to 50%.

Turning to `O=C(Cc1ccccc1)N[C@@H]1CCO[C@]12O[C@H](CO)[C@H](O)[C@H](n1cc(-c3cc(F)c(F)c(F)c3)nn1)[C@H]2O` [Compound A146, N-((4R,5S,7R,8R,9S,10R)-8,10-dihydroxy-7-(hydroxymethyl)-9-(4-(3,4,5-trifluorophenyl)-1H-1,2,3-triazol-1-yl)-1,6-dioxaspiro[4.5]decan-4-yl)-2-phenylacetamide], the inhibition at 20 µM was 25 to 50%.

The same assay, now with this note: read-out: % Inhibitory activity (at 20 μM), Table 3, found values; compound at 20 μM; 60 nM his-galectin-3, 15 nM biotin-ASF.
`O=C(Cc1ccccc1)N[C@@H]1CCO[C@]12O[C@H](CO)[C@H](O)[C@H](n1cc(-c3cc(F)c(F)c(F)c3)nn1)[C@H]2O` [Compound A146, N-((4R,5S,7R,8R,9S,10R)-8,10-dihydroxy-7-(hydroxymethyl)-9-(4-(3,4,5-trifluorophenyl)-1H-1,2,3-triazol-1-yl)-1,6-dioxaspiro[4.5]decan-4-yl)-2-phenylacetamide]: the inhibition at 20 µM came out at 40.7%.
